Entries after “also recorded” stand apart in the source; their conditions may differ.
Tests used:
U2OS cells = experiment: Colony survival assay, U2OS cells; assay type: cell-based; settings: varying cisplatin, 48 hours
Method: (§1) H1975 cells were plated in 24-well plates at 50,000 cells/well (for 50 µM inhibitor treatment) or 20,000 cells/well (for […] inhibitor treatment). U2OS and A549 cells were plated in 24-well plates at 5000 cells/well. The next day, cells were treated with varying concentrations of cisplatin, either with or without added inhibitor compound. After 48 hours of cisplatin+compound treatment, the cells were washed 3 times with PBS×1 and fresh media applied. After 4 days of recovery, the cells were stained with methylene blue and imaged using a Nikon SMZ25 stereomicroscope. The images were analyzed using the ImageJ (National Institutes of Health) area measurement tool to quantify total colony size in each well.

[1] = test system: γH2AX foci in H1975 cells; experiment: γH2AX foci immunofluorescence, H1975 cells; assay type: cell-based, human; settings: for number of γH2AX foci/cell, combined treatment: overnight
Method: (§2) H1975 and A549 cells were grown on glass coverslips in 12-well plates with the appropriate media, and fixed in 4% paraformaldehyde for 10 minutes at room temperature. Cells were permeabilizedin 0.5% TritonX100 in PBS×1 for 10 minutes at room temperature and then blocked in 5% BSA in 0.1% PBS×1-Tween for 1 hour at room temperature. Anti-phospho-Histone H2A.X primary antibody ([…]; 05-636-25UG) diluted 1:400 in 5% BSA in 0.1% PBS×1-Tween was added for 1 hour at room temperature. Fluorescent-dye conjugated secondary antibody was applied for 1 hour at room temperature. The coverslips were washed between each step with PBS×1. Nuclei were stained with DAPI (1:2000 dilution) at room temperature in the dark for 3 minutes. Coverslips were mounted on glass slides and imaged using an Olympus 1×81 microscope. For all treatments, cells with fewer than 80 foci were scored manually (FIG. 4B), and cells with more than 80 foci and very bright signals were scored automatically by using the “Analyze Particles” function in ImageJ (National Institutes of Health) after setting a suitable threshold.
(§3) Next, the inventors examined whether combined treatment of cisplatin with c #2 or c #3 correlates with an increase in DNA damage, which might explain the compound's sensitization effect. A549 and H1975 cell lines were exposed to combined overnight treatment with cisplatin and c #2 or c #3, and the levels of γH2AX foci were monitored. In both cell lines, a clear increase in the number of foci was observed after combined treatment, compared to cells treated with cisplatin or compounds alone (FIG. 12A).
(§4) Combined treatment of cisplatin with c #3 correlates with an increase in DNA damage. Levels of γ-H2AX foci, a marker for DNA double-strand breaks, were compared in H1975, A549 and B16F10 cell lines.

MAD2L2 = MAD2L2 (Homo sapiens, UniProt Q9UI95); experiment: Cellular thermal shift assay (CETSA) in 293T cells; assay type: cell-based; settings: 50 μM, 1 hour
Chain of MAD2L2 (Q9UI95 whole entry): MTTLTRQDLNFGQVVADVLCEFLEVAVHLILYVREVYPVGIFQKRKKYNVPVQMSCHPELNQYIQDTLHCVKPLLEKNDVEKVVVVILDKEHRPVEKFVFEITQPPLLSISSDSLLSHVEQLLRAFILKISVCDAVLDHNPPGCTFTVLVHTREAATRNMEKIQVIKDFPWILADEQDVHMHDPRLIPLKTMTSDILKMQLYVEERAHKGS
Method: The in vivo binding of MAD2L2 to the small molecule compounds was detected using the cellular thermal shift assay (CETSA), following their standard protocol. Briefly, 293T cells were grown to confluency and treated for 1 hour with the DMSO or selected compounds at 50 µM. Cells were collected and centrifuged for 3 min at 300 g, washed once with PBS, and each pellet was resuspended in 1 ml of PBS supplemented with Merck® 1000×protease inhibitor (539134). The cell suspensions were aliquoted and incubated for 3 min in the VWR XT96 thermal cycler using a gradient from 40°−55° C. Following heating, the tubes were incubated at room temperature for 3 min and then snap frozen in liquid nitrogen. The samples were then lysed via two subsequent freeze-thaw cycles with vortexing, and the lysates were centrifuged at 20,000 g for 20 min at 4° C. Finally, the cleared lysates were boiled in Laemmli buffer for 5 minutes.
In order to validate that MAD2L2 is a direct target of c #2 and c #3, the inventors tested the compounds' binding kinetics to a recombinant protein by Field Effect Biosensing (FEB) technology. Briefly, purified GST-MAD2L2 was immobilized onto a […] chip, and the current across the chip is measured to determine the baseline current. Then, a soluble compound was flowed over the chip. Interaction of the soluble and immobilized molecules yields a detectable change in conductance of the biosensor. The Kon and Koff of the interaction were measured over time and were used to calculate the KD. The binding of both c #2 and c #3 to MAD2L2 is in the micromolar range: 31.08 μM and 44.88 μM, respectively (FIG. 13A). […] The in vivo binding of c #2 or c #3 to MAD2L2 was validated by using a cellular thermal shift assay (CETSA), which is a reliable reporter showing whether a molecule enters the cell and the nucleus and binds to the protein of interest. Briefly, under normal conditions, most of the MAD2L2 protein unfolds, aggregates and disappears from the soluble fraction of the lysate between 46° C. and 49° C. […]

γH2AX foci in A549 cells = experiment: γH2AX foci immunofluorescence, A549 cells; assay type: cell-based; settings: for cells with more than 80 foci or very bright signal, combined treatment / number of γH2AX foci/cell, combined treatment: A549, 10 μM cisplatin + 50 μM compound; for number of γH2AX foci/cell, combined treatment: overnight
Method: as §2, §3, §4

A549 cells = experiment: Colony survival assay, A549 cells; assay type: cell-based; settings: for survival rate, combined treatment: A549, 5 μM cisplatin + 50 μM compound; for toxicity / cell viability, compound alone: A549, 50 μM compound alone; for sensitization effect to cisplatin: A549, cisplatin + 50 μM compound; for cell survival with cisplatin plus inhibitor: A549, varying cisplatin, 48 hours
Method: as §1
Cells were plated in 24-well plates at 50,000 cells/well (H1975 line) or 10,000 cells/well (A549 line). The next day, cells were treated with varying concentrations of cisplatin ([…]), with or without 50 μM compound. For the untreated control wells containing only cisplatin, DMSO was applied in place of the compound. After 48 hours of cisplatin+compound treatment, the cells were washed 3 times with PBS and fresh media was applied. After 4 days of recovery, the cells were stained with methylene blue and imaged using a Nikon SMZ25 stereomicroscope. The images were analyzed using the ImageJ (National Institutes of Health) area measurement tool to quantify total colony size in each well.
In order to assess the ability of the selected compounds to sensitize cells during cisplatin treatment, the inventors established a colony survival assay comparing the viability of cells treated with cisplatin alone or with combined treatment of cisplatin and 50 μM compound. For the compound screen, we used two lung cancer cell lines: human non-small lung carcinoma H1975 cells, and epithelial lung adenocarcinoma A549 cells. Out of ten compounds tested, compounds c #2 and c #3 were identified with the most significant sensitization effect and were chosen for future characterization. […] Survival rate was reduced from 90% in 5 μM cisplatin treatment to 50% survival in the combined treatment (FIGS. 11A-B). H1975 cells presented similar behavior following doxorubicin treatment (FIG. 11C). IC50 was calculated using linear regression, presenting a clear reduction of cisplatin's IC50 in all treatments.

[2] = H1975, 5 μM cisplatin + 50 μM compound

SMILES | cell survival with cisplatin plus inhibitor (U2OS cells) | number of γH2AX foci/cell, combined treatment [1, 2] | stabilization of folded MAD2L2 (in words) (MAD2L2) | MAD2L2 aggregation temperature (MAD2L2; normal conditions between 46° C. and 49° C.) | cells with more than 80 foci or very bright signal, combined treatment (γH2AX foci in A549 cells) | number of γH2AX foci/cell, combined treatment (γH2AX foci in A549 cells) | survival rate, combined treatment (A549 cells) [%] | toxicity / cell viability, compound alone (A549 cells) | toxicity / cell viability, compound alone (A549 cells; listed as c #2) | sensitization effect to cisplatin (A549 cells) | cell survival with cisplatin plus inhibitor (A549 cells) | increase in γ-H2AX foci/cell in co-treated cells ([1]; H1975, 5 μM cisplatin + 50 μM c #3, 16 h) [fold] | cells with more than 80 foci or very bright signal, combined treatment [1, 2] | γ-H2AX signal, c #3 alone ([1]; H1975, c #3 alone) | stabilization of folded MAD2L2 (in words) (MAD2L2; listed as c #3) | increase in γ-H2AX foci/cell in co-treated cells (γH2AX foci in A549 cells; A549, 10 μM cisplatin + 50 μM c #3, 16 h) [fold] | γ-H2AX signal, c #3 alone (γH2AX foci in A549 cells; A549, c #3 alone) | toxicity / cell viability, compound alone (A549 cells; listed as c #3)
CNc1nc(N2CCCCC2)nc(-n2cnc(SCC(N)=O)n2)n1 [Compound 2] | reduction in cell survival | significant increase in the number of γH2AX foci/cell | stabilize the folded MAD2L2 protein | milder change in MAD2L2's aggregation temperature | significantly more abundant | significant increase in the number of γH2AX foci/cell | 50 | no reduction in cell viability | caused no toxicity | approximately twofold sensitization effect | reduction in cell survival |  |  |  |  |  |  | 
Cc1oc(-c2ccco2)nc1CC(=O)N[C@@H](C(=O)O)c1ccccc1 [Compound 3] | reduction in cell survival | significant increase in the number of γH2AX foci/cell |  |  | significantly more abundant | significant increase in the number of γH2AX foci/cell | 50 | no reduction in cell viability |  | approximately twofold sensitization effect | reduction in cell survival | 2 | significantly more abundant | no effect on the γ-H2AX signal | stabilize the folded MAD2L2 protein; also recorded: stronger binding affinity to MAD2L2 than c #2 | 2 | no effect on the γ-H2AX signal | caused no toxicity
